According to patent US8927717B1, “Thiochromeno[2,3-c]quinolin-12-one derivatives, preparation method and application thereof” (National Defense Medical Center, priority 2014, dated 2015):

Experiments:
Assay type in all cases: cell-based
[1] = system: HL-60(TB); settings: HL-60(TB); 10^−5 molar
[2] = system: K-562; settings: K-562; 10^−5 molar
[3] = system: MOLT-4; settings: MOLT-4; 10^−5 molar
[4] = system: RPMI-8226; settings: RPMI-8226; 10^−5 molar
[5] = system: SR; settings: SR; 10^−5 molar
[6] = system: HOP-62; settings: HOP-62; 10^−5 molar
[7] = system: NCI-H226; settings: NCI-H226; 10^−5 molar
[8] = system: NCI-H23; settings: NCI-H23; 10^−5 molar
[9] = system: NCI-H460; settings: NCI-H460; 10^−5 molar
[10] = system: NCI-H522; settings: NCI-H522; 10^−5 molar
[11] = system: COLO 205; settings: COLO 205; 10^−5 molar
[12] = system: HCT-116; settings: HCT-116; 10^−5 molar
[13] = system: HT29; settings: HT29; 10^−5 molar
[14] = system: KM12; assay: cells; settings: KM12; 10^−5 molar
[15] = system: SW-620; settings: SW-620; 10^−5 molar
[16] = system: SF-268; settings: SF-268; 10^−5 molar
[17] = system: SNB-19; settings: SNB-19; 10^−5 molar
[18] = system: U251; settings: U251; 10^−5 molar
[19] = system: LOX IMVI; settings: LOX IMVI; 10^−5 molar
[20] = system: MALME-3M; settings: MALME-3M; 10^−5 molar
[21] = system: M14; settings: M14; 10^−5 molar
[22] = system: MDA-MB-435; settings: MDA-MB-435; 10^−5 molar
[23] = system: SK-MEL-28; settings: SK-MEL-28; 10^−5 molar
[24] = system: SK-MEL-5; settings: SK-MEL-5; 10^−5 molar
[25] = system: UACC-62; settings: UACC-62; 10^−5 molar
[26] = system: OVCAR-8; settings: OVCAR-8; 10^−5 molar
[27] = system: NCI/ADR-RES; settings: NCI/ADR-RES; 10^−5 molar
[28] = system: SK-OV-3; settings: SK-OV-3; 10^−5 molar
[29] = system: 786-0; settings: 786-0; 10^−5 molar
[30] = system: A498; settings: A498; 10^−5 molar
[31] = system: ACHN; settings: ACHN; 10^−5 molar
[32] = system: RXF 393; settings: RXF 393; 10^−5 molar
[33] = system: TK-10; settings: TK-10; 10^−5 molar
[34] = system: PC-3; settings: PC-3; 10^−5 molar
[35] = system: MCF7; settings: MCF7; 10^−5 molar
[36] = system: MDA-MB-231/ATCC; settings: MDA-MB-231/ATCC; 10^−5 molar
[37] = system: T-47D; settings: T-47D; 10^−5 molar
[38] = system: MDA-MB-486; settings: MDA-MB-486; 10^−5 molar
[39] = system: 60 cancer cell lines; assay: NCI 60-cell screen, SRB, whole panel (mean, delta, range); settings: 10^−5 molar; for Growth percent, Delta: delta over panel; for Growth percent, Mean: mean over panel; for Growth percent, Range: range over panel

O=c1c2cc(Cl)ccc2sc2c(NCc3ccc4c(c3)OCO4)nc3ccccc3c12 [Compound N27, 6-((Benzo[d][1,3]dioxol-5-ylmethyl)amino)-10-chloro-12H-thiochromeno[2,3-c]quinolin-12-one]
Growth percent [1]: 112.12%
Growth percent [2]: 80.37%
Growth percent [3]: 87.55%
Growth percent [4]: 96.35%
Growth percent [5]: 79.57%
Growth percent [6]: 78.01%
Growth percent [7]: 53.50%
Growth percent [8]: 79.93%
Growth percent [9]: 76.71%
Growth percent [10]: 78.43%
Growth percent [11]: 87.63%
Growth percent [12]: 69.98%
Growth percent [13]: 82.91%
Growth percent [14]: 87.96%
Growth percent [15]: 76.95%
Growth percent [16]: 93.24%
Growth percent [17]: 97.62%
Growth percent [18]: 81.03%
Growth percent [19]: 78.69%
Growth percent [20]: 81.64%
Growth percent [21]: 94.93%
Growth percent [22]: 91.64%
Growth percent [23]: 88.24%
Growth percent [24]: 79.86%
Growth percent [25]: 72.96%
Growth percent [26]: 79.45%
Growth percent [27]: 91.11%
Growth percent [28]: 82.87%
Growth percent [29]: 95.83%
Growth percent [30]: 75.91%
Growth percent [31]: 58.48%
Growth percent [32]: 74.20%
Growth percent [33]: 116.79%
Growth percent [34]: 78.54%
Growth percent [35]: 43.53%
Growth percent [36]: 54.65%
Growth percent [37]: 74.41%
Growth percent [38]: 60.47%
Growth percent, Delta [39]: 36.65%
Growth percent, Mean [39]: 81.18%
Growth percent, Range [39]: 73.26%

O=c1c2cc(Cl)ccc2sc2c(NCCc3ccccc3)nc3ccccc3c12 [Compound N30, 10-Chloro-6-(phenethylamino)-12H-thiochromeno[2,3-c]quinolin-12-one]
Growth percent [1]: 105.68%
Growth percent [2]: 82.82%
Growth percent [3]: 87.33%
Growth percent [4]: 77.36%
Growth percent [5]: 89.88%
Growth percent [6]: 103.19%
Growth percent [7]: 77.00%
Growth percent [8]: 89.89%
Growth percent [9]: 95.11%
Growth percent [10]: 93.93%
Growth percent [11]: 100.02%
Growth percent [12]: 85.77%
Growth percent [13]: 109.15%
Growth percent [14]: 90.99%
Growth percent [15]: 93.45%
Growth percent [16]: 101.32%
Growth percent [17]: 100.6%
Growth percent [18]: 96.78%
Growth percent [19]: 89.03%
Growth percent [20]: 122.61%
Growth percent [21]: 97.97%
Growth percent [22]: 106.06%
Growth percent [23]: 98.94%
Growth percent [24]: 89.49%
Growth percent [25]: 74.67%
Growth percent [26]: 95.61%
Growth percent [27]: 96.51%
Growth percent [28]: 102.16%
Growth percent [29]: 108.00%
Growth percent [30]: 83.22%
Growth percent [31]: 90.85%
Growth percent [32]: 96.74%
Growth percent [33]: 122.13%
Growth percent [34]: 87.25%
Growth percent [35]: 60.91%
Growth percent [36]: 79.55%
Growth percent [37]: 71.96%
Growth percent [38]: 63.11%
Growth percent, Delta [39]: 32.31%
Growth percent, Mean [39]: 93.22%
Growth percent, Range [39]: 61.70%

COc1ccc(CCNc2nc3ccccc3c3c(=O)c4cc(Cl)ccc4sc23)cc1 [Compound N31, 10-Chloro-6-((4-methoxyphenethyl)amino)-12H-thiochromeno[2,3-c]quinolin-12-one]
Growth percent [1]: 94.27%
Growth percent [2]: 91.76%
Growth percent [3]: 82.02%
Growth percent [4]: 99.98%
Growth percent [5]: 94.13%
Growth percent [6]: 90.07%
Growth percent [7]: 72.39%
Growth percent [8]: 92.72%
Growth percent [9]: 98.14%
Growth percent [10]: 93.69%
Growth percent [11]: 105.41%
Growth percent [12]: 98.46%
Growth percent [13]: 120.78%
Growth percent [14]: 109.46%
Growth percent [15]: 97.10%
Growth percent [16]: 100.14%
Growth percent [17]: 96.74%
Growth percent [18]: 98.72%
Growth percent [19]: 87.78%
Growth percent [20]: 99.74%
Growth percent [21]: 100.06%
Growth percent [22]: 104.49%
Growth percent [23]: 99.41%
Growth percent [24]: 85.38%
Growth percent [25]: 80.17%
Growth percent [26]: 97.83%
Growth percent [27]: 103.78%
Growth percent [28]: 96.11%
Growth percent [29]: 100.71%
Growth percent [30]: 99.56%
Growth percent [31]: 91.19%
Growth percent [32]: 88.50%
Growth percent [33]: 132.57%
Growth percent [34]: 84.95%
Growth percent [35]: 59.13%
Growth percent [36]: 82.31%
Growth percent [37]: 69.90%
Growth percent [38]: 53.93%
Growth percent, Delta [39]: 39.45%
Growth percent, Mean [39]: 93.38%
Growth percent, Range [39]: 78.64%
